PubChem BioAssay AID2060619 (Molecular Pharmacology Branch, DTP, NCI, 2025)
Values joined by “and” are separate entries in the source; they are usually repeats but may differ in a detail not shown here. Equal values may be shown once.

System: 323965-272-R-J2-PDC complex spheroid viability
Assay: Anticancer human tumor 323965-272-R-J2-PDC patient-derived pancreatic carcinoma cell line growth inhibition [CLK]
Conditions: for viability, T/C: stronger effect = lower value
Summary of the method: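 Patient-derived tumor cells grown as complex spheroids with HUVEC endothelial cells and mesenchymal stem cells, treated with drug combinations. Concentrations descend in half-log steps from near clinical Cmax, or from 10 microM if Cmax unknown.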

[1] = curve of first compound, second compound 0.0316 µM
[2] = curve of first compound, second compound 0.1 µM
[3] = curve of first compound, second compound 0.316 µM
[4] = curve of first compound, second compound 1 µM
[5] = curve of first compound, second compound 3.16 µM
[6] = curve of first compound, second compound 10 µM
[7] = second compound 0.0316 µM, first compound 0.0316 µM
[8] = second compound 0.0316 µM, first compound 0.1 µM
[9] = second compound 0.0316 µM, first compound 0.316 µM
[10] = second compound 0.0316 µM, first compound 1 µM
[11] = second compound 0.0316 µM, first compound 3.16 µM
[12] = second compound 0.0316 µM, first compound 10 µM
[13] = second compound 0.1 µM, first compound 0.0316 µM
[14] = second compound 0.1 µM, first compound 0.1 µM
[15] = second compound 0.1 µM, first compound 0.316 µM
[16] = second compound 0.1 µM, first compound 1 µM
[17] = second compound 0.1 µM, first compound 3.16 µM
[18] = second compound 0.1 µM, first compound 10 µM
[19] = second compound 0.316 µM, first compound 0.0316 µM
[20] = second compound 0.316 µM, first compound 0.1 µM
[21] = second compound 0.316 µM, first compound 0.316 µM
[22] = second compound 0.316 µM, first compound 1 µM
[23] = second compound 0.316 µM, first compound 3.16 µM
[24] = second compound 0.316 µM, first compound 10 µM
[25] = second compound 1 µM, first compound 0.0316 µM
[26] = second compound 1 µM, first compound 0.1 µM
[27] = second compound 1 µM, first compound 0.316 µM
[28] = second compound 1 µM, first compound 1 µM
[29] = second compound 1 µM, first compound 3.16 µM
[30] = second compound 1 µM, first compound 10 µM
[31] = second compound 3.16 µM, first compound 0.0316 µM
[32] = second compound 3.16 µM, first compound 0.1 µM
[33] = second compound 3.16 µM, first compound 0.316 µM
[34] = second compound 3.16 µM, first compound 1 µM
[35] = second compound 3.16 µM, first compound 3.16 µM
[36] = second compound 3.16 µM, first compound 10 µM
[37] = second compound 10 µM, first compound 0.0316 µM
[38] = second compound 10 µM, first compound 0.1 µM
[39] = second compound 10 µM, first compound 0.316 µM
[40] = second compound 10 µM, first compound 1 µM
[41] = second compound 10 µM, first compound 3.16 µM
[42] = second compound 10 µM, first compound 10 µM
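Note: spheroids exposed to agents for seven days before readout.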
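Throughout, for viability, T/C: percent of DMSO vehicle control wells so 100% = untreated growth.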

CC1(C)CCC(CN2CCN(c3ccc(C(=O)NS(=O)(=O)c4ccc(NCC5CCOCC5)c([N+](=O)[O-])c4)c(Oc4cnc5[nH]ccc5c4)c3)CC2)=C(c2ccc(Cl)cc2)C1 + CN1CCN(c2cc(C(=O)Nc3cc4cc(-c5cnn(C)c5)ccc4cn3)ccn2)CC1
IC50 [1]: 4960 nM
IC50 [2]: 3600 nM
IC50 [3]: < 31.6 nM
IC50 [4]: < 31.6 nM
IC50 [5]: < 31.6 nM
IC50 [6]: < 31.6 nM
viability, T/C [7]: 91.3%
viability, T/C [8]: 97.7%
viability, T/C [9]: 93.8%
viability, T/C [10]: 92.2%
viability, T/C [11]: 78.8%
viability, T/C [12]: 5.11%
viability, T/C [13]: 69.6%
viability, T/C [14]: 63.8%
viability, T/C [15]: 65.4%
viability, T/C [16]: 68.5%
viability, T/C [17]: 55.8%
viability, T/C [18]: 5.08%
viability, T/C [19]: 27.8%
viability, T/C [20]: 24.5%
viability, T/C [21]: 28.6%
viability, T/C [22]: 27.1%
viability, T/C [23]: 20.2%
viability, T/C [24]: 4.31%
viability, T/C [25]: 3.4%
viability, T/C [26]: 3.32%
viability, T/C [27]: 4.86%
viability, T/C [28]: 2.95%
viability, T/C [29]: 2.45%
viability, T/C [30]: 2.47%
viability, T/C [31]: 3.55%
viability, T/C [32]: 3.34%
viability, T/C [33]: 3.03%
viability, T/C [34]: 2.11%
viability, T/C [35]: 1.06%
viability, T/C [36]: 0.14%
viability, T/C [37]: 4.06%
viability, T/C [38]: 3.26%
viability, T/C [39]: 3.77%
viability, T/C [40]: 2.06%
viability, T/C [41]: 0.92%
viability, T/C [42]: 3.22%

COC1C=CCC(C)C(C)S(=O)(=O)NC(=O)c2ccc3c(c2)N(CC2CCC21)CC1(CCCc2cc(Cl)ccc21)CO3 (stereo not given)
viability, T/C (compound 0.0316 µM): 111% and 91.1%
viability, T/C (compound 0.1 µM): 108% and 91.9%
viability, T/C (compound 0.316 µM): 77.9% and 80.8%
viability, T/C (compound 1 µM): 61.1% and 61.5%
viability, T/C (compound 3.16 µM): 37.5% and 61%
viability, T/C (compound 10 µM): 10.5% and 25.6%
IC50 (curve of compound): 1640 nM and 3650 nM

Nc1ccn(C2OC(CO)C(O)C2(F)F)c(=O)n1 (stereo not given) + CN1CCN(c2cc(C(=O)Nc3cc4cc(-c5cnn(C)c5)ccc4cn3)ccn2)CC1
IC50 [1]: < 31.6 nM
IC50 [2]: < 31.6 nM
IC50 [3]: < 31.6 nM
IC50 [4]: < 31.6 nM
IC50 [5]: < 31.6 nM
IC50 [6]: < 31.6 nM
viability, T/C [7]: 35.2%
viability, T/C [8]: 30.6%
viability, T/C [9]: 33.9%
viability, T/C [10]: 36.6%
viability, T/C [11]: 25.3%
viability, T/C [12]: 24.8%
viability, T/C [13]: 31.1%
viability, T/C [14]: 29.9%
viability, T/C [15]: 28.6%
viability, T/C [16]: 23%
viability, T/C [17]: 20.9%
viability, T/C [18]: 19.5%
viability, T/C [19]: 18.4%
viability, T/C [20]: 20.2%
viability, T/C [21]: 16.6%
viability, T/C [22]: 19.8%
viability, T/C [23]: 15.2%
viability, T/C [24]: 13.6%
viability, T/C [25]: 2.74%
viability, T/C [26]: 3.71%
viability, T/C [27]: 5.04%
viability, T/C [28]: 3.41%
viability, T/C [29]: 3.52%
viability, T/C [30]: 1.82%
viability, T/C [31]: 3.79%
viability, T/C [32]: 4.62%
viability, T/C [33]: 5.76%
viability, T/C [34]: 4.04%
viability, T/C [35]: 4.01%
viability, T/C [36]: 6.04%
viability, T/C [37]: 3.95%
viability, T/C [38]: 5.3%
viability, T/C [39]: 4.73%
viability, T/C [40]: 4.61%
viability, T/C [41]: 5.93%
viability, T/C [42]: 4.49%

Nc1ccn(C2OC(CO)C(O)C2(F)F)c(=O)n1 (stereo not given) + CNC(=O)c1ccc(Nc2nc(OC3CCCC3)c3c(-c4ccc5nc(C)oc5c4)c[nH]c3n2)c(OC)c1
IC50 [1]: < 31.6 nM
IC50 [2]: < 31.6 nM
IC50 [3]: < 31.6 nM
IC50 [4]: < 31.6 nM
IC50 [5]: < 31.6 nM
IC50 [6]: < 31.6 nM
viability, T/C [7]: 30.7%
viability, T/C [8]: 33%
viability, T/C [9]: 30.3%
viability, T/C [10]: 27.9%
viability, T/C [11]: 27.9%
viability, T/C [12]: 30.4%
viability, T/C [13]: 37.4%
viability, T/C [14]: 33.3%
viability, T/C [15]: 26%
viability, T/C [16]: 32.3%
viability, T/C [17]: 30.2%
viability, T/C [18]: 32.1%
viability, T/C [19]: 32.9%
viability, T/C [20]: 27.8%
viability, T/C [21]: 25.4%
viability, T/C [22]: 27.8%
viability, T/C [23]: 28.1%
viability, T/C [24]: 25.2%
viability, T/C [25]: 24.2%
viability, T/C [26]: 21.4%
viability, T/C [27]: 21.4%
viability, T/C [28]: 18.9%
viability, T/C [29]: 17.8%
viability, T/C [30]: 18.9%
viability, T/C [31]: 25.6%
viability, T/C [32]: 22.8%
viability, T/C [33]: 21.6%
viability, T/C [34]: 21.2%
viability, T/C [35]: 19.7%
viability, T/C [36]: 18.2%
viability, T/C [37]: 26.7%
viability, T/C [38]: 23%
viability, T/C [39]: 24.2%
viability, T/C [40]: 21.1%
viability, T/C [41]: 22%
viability, T/C [42]: 15.8%

COc1c(OCCCN2CCOCC2)ccc2c3n(c(=NC(=O)c4cnc(N)nc4)nc12)CCN3 + CNC(=O)c1ccc(Nc2nc(OC3CCCC3)c3c(-c4ccc5nc(C)oc5c4)c[nH]c3n2)c(OC)c1
IC50 [1]: 90.7 nM
IC50 [2]: 62.2 nM
IC50 [3]: 16.3 nM
IC50 [4]: < 3.16 nM
IC50 [5]: < 3.16 nM
IC50 [6]: < 3.16 nM
viability, T/C (second compound 0.0316 µM, first compound 0.00316 µM): 107%
viability, T/C (second compound 0.0316 µM, first compound 0.01 µM): 82%
viability, T/C [7]: 66.8%
viability, T/C [8]: 48.4%
viability, T/C [9]: 34.1%
viability, T/C [10]: 22.2%
viability, T/C (second compound 0.1 µM, first compound 0.00316 µM): 89.8%
viability, T/C (second compound 0.1 µM, first compound 0.01 µM): 84.6%
viability, T/C [13]: 58.8%
viability, T/C [14]: 42%
viability, T/C [15]: 31.2%
viability, T/C [16]: 21.1%
viability, T/C (second compound 0.316 µM, first compound 0.00316 µM): 64.5%
viability, T/C (second compound 0.316 µM, first compound 0.01 µM): 56.7%
viability, T/C [19]: 42.4%
viability, T/C [20]: 31.7%
viability, T/C [21]: 27.7%
viability, T/C [22]: 16.4%
viability, T/C (second compound 1 µM, first compound 0.00316 µM): 45.5%
viability, T/C (second compound 1 µM, first compound 0.01 µM): 38.8%
viability, T/C [25]: 31.8%
viability, T/C [26]: 24.5%
viability, T/C [27]: 21.4%
viability, T/C [28]: 15.2%
viability, T/C (second compound 3.16 µM, first compound 0.00316 µM): 37.5%
viability, T/C (second compound 3.16 µM, first compound 0.01 µM): 28.3%
viability, T/C [31]: 23.3%
viability, T/C [32]: 19.4%
viability, T/C [33]: 15.8%
viability, T/C [34]: 13.7%
viability, T/C (second compound 10 µM, first compound 0.00316 µM): 44.8%
viability, T/C (second compound 10 µM, first compound 0.01 µM): 32.7%
viability, T/C [37]: 26.4%
viability, T/C [38]: 19.8%
viability, T/C [39]: 17.1%
viability, T/C [40]: 13.5%
